Assay results taken from paper PMC11942566, “Next-Generation Analogues of AC265347 as Positive Allosteric Modulators of the Calcium-Sensing Receptor: Pharmacological Investigation of Structural Modifications at the Stereogenic Centre” (International Journal of Molecular Sciences, 2025).
Like-named read-outs stand apart in the source and are kept apart here. Blank lines part the entries; values can stand above or below the molecule they belong to.

Legend:
[1] = molecular target: T1, wild-type human CaSR (calcium-sensing receptor) (Homo sapiens, UniProt P41180); test: Ca2+i mobilisation (Fluo-8), operational model of allosteric modulation; type: cell-based; conditions: for Kb: read-out: pKB ± SEM (KB) (converted)
T1 construct: full-length wild-type, cmyc-tagged
T1 sequence (P41180 20-1078): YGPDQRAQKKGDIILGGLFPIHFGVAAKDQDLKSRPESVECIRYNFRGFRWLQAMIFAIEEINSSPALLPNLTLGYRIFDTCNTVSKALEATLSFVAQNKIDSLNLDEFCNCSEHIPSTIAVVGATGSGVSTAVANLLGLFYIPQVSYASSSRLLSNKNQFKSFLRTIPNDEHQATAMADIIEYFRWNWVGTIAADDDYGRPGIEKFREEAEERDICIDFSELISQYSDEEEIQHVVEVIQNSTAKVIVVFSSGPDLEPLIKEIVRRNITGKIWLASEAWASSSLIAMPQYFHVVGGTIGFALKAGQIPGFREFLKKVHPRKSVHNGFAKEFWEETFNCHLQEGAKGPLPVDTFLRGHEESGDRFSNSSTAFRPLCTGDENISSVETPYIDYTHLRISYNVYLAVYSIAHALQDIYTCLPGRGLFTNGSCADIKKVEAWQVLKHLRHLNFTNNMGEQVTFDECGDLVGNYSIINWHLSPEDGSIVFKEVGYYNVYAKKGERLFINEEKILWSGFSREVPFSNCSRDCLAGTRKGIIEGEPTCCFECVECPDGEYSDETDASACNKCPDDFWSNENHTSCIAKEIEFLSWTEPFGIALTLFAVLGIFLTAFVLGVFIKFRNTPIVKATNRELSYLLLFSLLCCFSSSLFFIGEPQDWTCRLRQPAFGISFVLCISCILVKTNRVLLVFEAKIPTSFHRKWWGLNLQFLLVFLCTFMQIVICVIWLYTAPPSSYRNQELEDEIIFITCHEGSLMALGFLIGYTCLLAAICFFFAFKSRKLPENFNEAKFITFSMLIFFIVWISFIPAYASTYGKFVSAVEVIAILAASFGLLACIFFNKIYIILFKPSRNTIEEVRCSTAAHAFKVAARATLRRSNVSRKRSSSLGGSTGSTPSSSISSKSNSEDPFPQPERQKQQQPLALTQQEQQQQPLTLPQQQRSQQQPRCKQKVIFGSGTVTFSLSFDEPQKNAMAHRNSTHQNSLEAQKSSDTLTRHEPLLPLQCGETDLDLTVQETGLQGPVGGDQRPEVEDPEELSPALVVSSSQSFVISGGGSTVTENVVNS
Source text: Ca2+i mobilisation (Fluo-8), operational model of allosteric modulation on wild-type human CaSR (calcium-sensing receptor)

[2] = molecular target: T1, wild-type human CaSR (calcium-sensing receptor); test: Ca2+i mobilisation (Fluo-8), four-parameter sigmoidal fit with shared Hill slope; type: cell-based; conditions: positive allosteric modulation of Ca2+o response, pH 7.4, 37 °C; KB not determinable
[3] = functional affinity estimate (from pKB), positive allosteric modulator, allosteric site, Ca2+o as orthosteric agonist, pH 7.4, 37 °C, reanalysis of the authors' previously published data, cited from earlier work

Kb [1]: 8.1 µM
SMILES: C=CC(O)(c1nc2ccccc2s1)c1ccc(C)cc1C (racemic) [7b, 1-(Benzo[d]thiazol-2-yl)-1-(2,4-dimethylphenyl)prop-2-en-1-ol]

fold increase in Ca2+o potency (pEC50) at 10 μM [2]: 1.8 fold
SMILES: COC(C)(c1nc2ccccc2s1)c1ccc(C)cc1C (racemic) [compound 8, 2-(1-(2,4-Dimethylphenyl)-1-methoxyethyl)benzo[d]thiazole]

Kb [1]: 10 µM
SMILES: Cc1ccc(C(C)(F)c2nc3ccccc3s2)c(C)c1 (racemic) [compound 9, 2-(1-(2,4-Dimethylphenyl)-1-fluoroethyl)benzo[d]thiazole]

The next lines start with the molecule.

SMILES: Cc1ccc(C(C)(O)c2nc3ccccc3s2)c(C)c1 (racemic) [compound 1, 1-(Benzo[d]thiazol-2-yl)-1-(2,4-dimethylphenyl)ethan-1-ol]
Kb [1, 3]: 3.4 µM

SMILES: Cc1ccc(C(O)(c2nc3ccccc3s2)C(F)(F)F)c(C)c1 (racemic) [compound 5, 5]
Kb [1, 3]: 5 µM

SMILES: Cc1ccc(C2(c3nc4ccccc4s3)CO2)c(C)c1 (racemic) [compound 6, 2-(2-(2,4-Dimethylphenyl)oxiran-2-yl)benzo[d]thiazole]
Kb [1]: 29 µM

SMILES: Cc1ccc(C2(c3nc4ccccc4s3)CCO2)c(C)c1 (racemic) [compound 7, 2-(2-(2,4-Dimethylphenyl)oxetan-2-yl)benzo[d]thiazole]
pKB ± SEM (KB, μM) ([1]; functional affinity estimate (from pKB), positive allosteric modulator, allosteric site, Ca2+o as orthosteric agonist, pH 7.4, 37 °C, unreliable (extrapolated beyond highest tested concentration 30 μM)): 123 μM
